Literature values, collected in patent US11293039B2, “Method for producing organic acid salts from fermentation broth” (METABOLIC EXPLORER, priority 2017, dated 2022).

Conditions: dilute aqueous solution, 25 °C

Compound | pKa
CC(Cl)C(=O)O (stereo not shown) [2-Chloropropanoic acid] | 2.83
O=C(O)CCCl [3-Chloropropanoic acid] | 3.98
CC(CC(=O)O)CC(=O)O [3-Methylglutaric acid] | 4.24
N#CCCCC(=O)O [4-Cyanobutanoic acid] | 2.42
N#CCC(=O)O [Cyanoacetic acid] | 2.45
O=C(O)C(O)CO (stereo not shown) [Glyceric acid] | 3.52
CC(C(=O)O)C(=O)O [Methymalonic acid] | 3.07
O=C(O)CCCCCCC(=O)O [Octanedioic acid] | 4.52
O=C(O)[C@@H]1CCCCN1 [l-Pipecolic acid] | 2.28
Alloxanic acid | 6.64
